# Like-named read-outs stand apart in the source and are kept apart here.
# Test system: PKMYT1 (CDK1 pThr14) in FUOV1 cells
# Test: PKMYT1 cell-based activity assay, CDK1 pThr14 AlphaLISA in FUOV1 cells
# Settings: 2 h, read-out: FUOV-1 CDK1 pThr14 IC50
# Method: To determine compound IC50 (PKMYT1 cell-based activity assay, CDK1 pThr14 AlphaLISA), FUOV1 cells were plated into a 96-well TC-treated culture plate at 50000 cells/well in a final volume of 100 μL of media. The plates were then allowed to equilibrate in a biological safety cabinet for 30 minutes before being placed in a humidified incubator at 37 C and 5% CO2 overnight. The next day, 2 μL of PKMYT1 inhibitors or DMSO were diluted in 400 μL of warmed culture media in a 96-well block using a Biomek FX liquid handler. Compounds were mixed in media and then 25 μL was dispensed into each well of the 96-well cell plate. Plates were centrifuged at 300 g for 10 seconds and then placed in the incubator for 2 hours. After the 2-hour incubation with compound, media was removed via aspiration using a multichannel pipette. 30 μL of 1× AlphaLISA lysis buffer (Perkin Elmer) supplemented with protease and phosphatase inhibitors as well as 1 mM PMSF, was added to each well. Plates were rotated at 500 g for 20 minutes to facilitate lysis. Plates were then sealed with aluminum foil and frozen at −80° C. for at least 1 hour. Lysates were thawed at 37° C. for 10 minutes, then 10 μL of each lysate was transferred in duplicate to a white 384-well assay plate. Antibody mixture was prepared in 1× AlphaLISA assay buffer (Perkin Elmer) containing antibodies (5 nM final concentration for rabbit pThr14-CDK1 from Abcam #ab58509 and mouse total CDK1 from ThermoFisher Scientific #33-1800). 5 μL of antibody mixture was added to each well of the assay plate. The assay plate was sealed and stored at 4° C. overnight. The next day, AlphaLISA bead mixture (Perkin Elmer) was prepared in 1× AlphaLISA assay buffer. Anti-rabbit IgG Acceptor (Perkin Elmer #AL104C) and anti-mouse IgG Donor beads (Perkin Elmer #AS104D) were prepared to a concentration of 80 μg/ml in assay buffer. 5 μL of bead mixture was added to each well of the assay plate (20 μg/ml final concentration for each bead). The plate was protected from light and incubated for 2 hours at room temperature. After a 2-hour incubation with beads, the plate was read using the Perkin Elmer EnVision Multimode plate reader with excitation at 680 nm and emission at 615 nm.
IC50 (2 h compound incubation),IC50 (2 hours with compound),Structure (SMILES),also measured
4 nM,,Cc1ccc2[nH]ncc2c1-c1nc(-c2ccc(F)cc2Nc2ncncc2F)nc(C(N)=O)c1N [Compound 526],
118 nM,,Cc1ccc2[nH]ncc2c1-c1nc(-c2ccc(F)cc2NC(=O)C2(C)CCCO2)nc(C(N)=O)c1N (centres unmarked) [Compound 528],
43 nM,,Cc1ccc2[nH]ncc2c1-c1nc(-c2cc(C#N)ccc2Nc2ncccn2)nc(C(N)=O)c1N [Compound 789],
,,"Cc1ccc2[nH]ncc2c1-c1nc(-c2cccnc2Nc2nc(F)ccc2F)nc(C(N)=O)c1Cl [Compound 314, 5-chloro-2-[2-[(3,6-difluoro-2-pyridyl)amino]-3-pyridyl]-6-(5-methyl-1H-indazol-4-yl)pyrimidine-4-carboxamide]",IC50 (2 h incubation): 1620 nM
45 nM,,Cc1ccc2[nH]ncc2c1-c1nc(-c2cc(F)ccc2NS(C)(=O)=O)nc(C(N)=O)c1N [Compound 491],
,> 10000 nM,Cc1ccc2[nH]ncc2c1-c1nc(-c2cc(F)cnc2N[C@H]2CCOC[C@@H]2O)nc(C(N)=O)c1N [Compound 801],
139 nM,,Cc1ccc2[nH]ncc2c1-c1nc(-c2cc(F)c(F)cc2NCC2(C#N)CC2)nc(C(N)=O)c1N [Compound 517],
,74 nM,Cc1ccc2[nH]ncc2c1-c1nc(-c2ccc(Cl)nc2NC2CCOCC2)nc(C(N)=O)c1N [Compound 803],
,38 nM,Cc1ccc2[nH]ncc2c1-c1nc(-c2cc(F)ncc2NC2CC(F)(F)C2)nc(C(N)=O)c1N [Compound 844],
,71 nM,Cc1ccc2[nH]ncc2c1-c1nc(-c2cc(F)cnc2N[C@@H]2COC[C@@H]2O)nc(C(N)=O)c1N [Compound 814],
40 nM,,Cc1ccc2[nH]ncc2c1-c1nc(-c2ccc(F)cc2Nc2nccs2)nc(C(N)=O)c1N [Compound 581],
383 nM,,Cc1ccnc(Nc2ncccc2-c2nc(C(N)=O)c(N)c(-c3c(C)ccc4[nH]ncc34)n2)c1C [Compound 738],
,48 nM,Cc1ccc2[nH]ncc2c1-c1nc(-c2cc(F)cnc2N[C@H]2CC[C@@H](O)C2)nc(C(N)=O)c1N [Compound 797],
,217 nM,Cc1ccc2[nH]ncc2c1-c1nc(-c2ccc(Cl)nc2Nc2cccnn2)nc(C(N)=O)c1N [Compound 832],
101 nM,,Cc1ccc2[nH]ncc2c1-c1nc(-c2cc(F)ccc2Nc2ccnn2C)nc(C(N)=O)c1N [Compound 522],
416 nM,,Cc1ccc2[nH]ncc2c1-c1cc2c(oc3ccc(F)nc32)c(C(N)=O)c1N [Compound 557],
,4 nM,N#Cc1cccnc1Nc1cc(F)ccc1-c1nc(C(N)=O)c(N)c(-c2c(F)ccc3[nH]ncc23)n1 [Compound 968],
160 nM,,Cc1ccc2[nH]ncc2c1-c1nc(-c2cccnc2Nc2ccccc2Cl)nc(C(N)=O)c1N [Compound 629],
7 nM,,Cc1ccc2[nH]ncc2c1-c1nc(-c2cccnc2N[C@H]2CCOC2)nc(C(N)=O)c1N [Compound 550],

IC50 (2 h compound incubation),IC50 (2 hours with compound),Structure (SMILES),also measured
465 nM,,Cc1ccc2[nH]ncc2c1-c1nc(-c2cc(F)c(F)cc2NCc2cccnc2)nc(C(N)=O)c1N [Compound 496],
527 nM,,COc1cccc(Nc2ncccc2-c2nc(C(N)=O)c(N)c(-c3c(C)ccc4[nH]ncc34)n2)c1 [Compound 656],
59 nM,,Cc1ccc2[nH]ncc2c1-c1nc(-c2cccnc2Nc2cncc(F)n2)nc(C(N)=O)c1N [Compound 753],
,12 nM,Cc1ccc2[nH]ncc2c1-c1nc(-c2ccc(F)nc2Nc2ncccc2C#N)nc(C(N)=O)c1N [Compound 934],
114 nM,,Cc1ccc2[nH]ncc2c1-c1nc(-c2cc(F)c(F)cc2NC2CNC2)nc(C(N)=O)c1N [Compound 486],
,8 nM,Cc1ccc2[nH]ncc2c1-c1nc(-c2ccc(Cl)nc2Nc2ncccc2C#N)nc(C(N)=O)c1N [Compound 935],
56 nM,,Cc1ccc2[nH]ncc2c1-c1nc(-c2ccc(F)cc2Nc2cncc(C#N)n2)nc(C(N)=O)c1N [Compound 706],
,3 nM,Cc1ccc2[nH]ncc2c1-c1nc(-c2cccnc2Nc2nc(C(F)F)ccc2F)nc(C(N)=O)c1N [Compound 842],
52 nM,,Cc1ccc2[nH]ncc2c1-c1nc(-c2ccc(F)cc2NS(C)(=O)=O)nc(C(N)=O)c1N [Compound 512],
,107 nM,Cc1cc(F)c2[nH]ncc2c1-c1nc(-c2ccc(C(F)F)nc2Nc2nccnc2Cl)nc(C(N)=O)c1N [Compound 909],
30 nM,,Cc1ccc2[nH]ncc2c1-c1nc(-c2ccc(F)cc2Nc2ccccn2)nc(C(N)=O)c1N [Compound 516],
,35 nM,Cc1ccc2[nH]ncc2c1-c1nc(-c2cnsc2NC2CCOCC2)nc(C(N)=O)c1N [Compound 856],
,71 nM,Cc1ccc2[nH]ncc2c1-c1nc(-c2ccc(C#N)cc2N[C@H]2C[C@](C)(O)C2)nc(C(N)=O)c1N [Compound 821],
14 nM,,Cc1ccc2[nH]ncc2c1-c1nc(-c2cc(F)cnc2NCC(C)(C)C#N)nc(C(N)=O)c1N [Compound 702],
,16 nM,N#Cc1cccnc1Nc1nc(F)ccc1-c1nc(C(N)=O)c(N)c(-c2c(F)ccc3[nH]ncc23)n1 [Compound 969],
11 nM,,Cc1ccc2[nH]ncc2c1-c1nc(-c2cccnc2Nc2ncccc2C(F)(F)F)nc(C(N)=O)c1N [Compound 767],
,172 nM,Cc1ccc2[nH]ncc2c1-c1nc(-c2ccc(C#N)cc2N[C@H]2C[C@@](C)(O)C2)nc(C(N)=O)c1N [Compound 822],
50 nM,,Cc1ccc2[nH]ncc2c1-c1nc(-c2cccnc2N[C@@H]2CCOC2)nc(C(N)=O)c1N [Compound 547],
3 nM,,Cc1ccc2[nH]ncc2c1-c1nc(-c2ccc(F)cc2Nc2ccncc2)nc(C(N)=O)c1N [Compound 533],

IC50 (2 h compound incubation),IC50 (2 hours with compound),Structure (SMILES),also measured
,160 nM,"[2H]C([2H])([2H])c1ccc2[nH]ncc2c1-c1nc(-c2cccnc2NC23CC(C#N)(C2)C3)nc(C(N)=O)c1N [Compound 957, 5-amino-2-[2-[(3-cyano-1-bicyclo[1.1.1]pentanyl)amino]-3-pyridyl]-6-[5-(trideuteriomethyl)-1H-indazol-4-yl]pyrimidine-4-carboxamide]",
,> 10000 nM,"Cc1ccc2[nH]ncc2c1-c1nc(-c2cc(F)cnc2N[C@@H]2CCOC[C@H]2O)nc(C(N)=O)c1N [Compound 799, 5-amino-2-(5-fluoro-2-(((3S,4R)-3-hydroxytetrahydro-2H-pyran-4-yl)amino)pyridin-3-yl)-6-(5-methyl-1H-indazol-4-yl)pyrimidine-4-carboxamide]",
21 nM,,Cc1ccc2[nH]ncc2c1-c1nc(-c2ccc(F)cc2Nc2nccc(C#N)n2)nc(C(N)=O)c1N [Compound 532],
18 nM,,Cc1ccc2[nH]ncc2c1-c1nc(-c2ccc(F)cc2Nc2ccnc(C)c2C)nc(C(N)=O)c1N [Compound 584],
764 nM,,Cc1ccc2[nH]ncc2c1-c1nc(-c2ccc(F)cc2Nc2nccc(C(F)(F)F)n2)nc(C(N)=O)c1N [Compound 572],
76 nM,,COc1cnnc(Nc2cc(F)ccc2-c2nc(C(N)=O)c(N)c(-c3c(C)ccc4[nH]ncc34)n2)c1 [Compound 566],
,51 nM,[2H]C([2H])([2H])c1ccc2[nH]ncc2c1-c1nc(-c2ccc(Cl)nc2Nc2ncccn2)nc(C(N)=O)c1N [Compound 946],
,8 nM,Cc1cc(F)c2[nH]ncc2c1-c1nc(-c2ccc(F)cc2Nc2ncccc2C#N)nc(C(N)=O)c1N [Compound 880],
198 nM,,Cc1ccc2[nH]ncc2c1-c1nc(-c2ccncc2NC(=O)OC(C)(C)C)nc(C(N)=O)c1N [Compound 495],
,95 nM,Cc1ccc2[nH]ncc2c1-c1nc(-c2ccc(F)cc2N[C@H]2C[C@](C)(O)C2)nc(C(N)=O)c1N [Compound 861],
,10 nM,Cc1c(F)cc2[nH]ncc2c1-c1nc(-c2ccc(F)cc2Nc2ncccc2C#N)nc(C(N)=O)c1N [Compound 865],
,8 nM,NC(=O)c1nc(-c2ccc(F)nc2Nc2ncccc2F)nc(-c2c(Cl)ccc3[nH]ncc23)c1N [Compound 913],
,139 nM,Cc1cc(F)c2[nH]ncc2c1-c1nc(-c2ccc(F)nc2Nc2nccnc2C(F)F)nc(C(N)=O)c1N [Compound 868],
,4 nM,Cc1ccc2[nH]ncc2c1-c1nc(-c2ccc(F)nc2Nc2nc(C(F)F)ccc2F)nc(C(N)=O)c1N [Compound 947],
,51 nM,Cc1ccc2[nH]ncc2c1-c1nc(-c2ccc(F)cc2N[C@H]2C[C@H](O)C2)nc(C(N)=O)c1N [Compound 906],
61 nM,,Cc1ccc(-c2nc(C(N)=O)c(N)c(-c3c(C)ccc4[nH]ncc34)n2)c(Nc2ncccn2)c1 [Compound 653],
702 nM,,Cc1ccc2[nH]ncc2c1-c1nc(-c2ccc(F)cc2Nc2nccc(N3CCOCC3)n2)nc(C(N)=O)c1N [Compound 577],
1260 nM,,CCc1ccccc1-c1nc(C(N)=O)c(N)c(-c2c(C)ccc3[nH]ncc23)n1 [Compound 778],

# — patent US20250304537A1 (Repare Therapeutics Inc., priority 2022, published 2025)
